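Cells were grown in 96-well plates and exposed to each compound for 48 hours at five concentrations; endpoints were interpolated linearly between bracketing concentrations, or set to the highest concentration if not reached. TGI denotes the concentration required for complete inhibition of growth.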
How the values were obtained:
Assay in all cases: NCI anticancer screen, dose series, 48 h
HCT-116 colon = tested on: HCT-116 colon
OVCAR-5 ovarian = tested on: OVCAR-5 ovarian
OVCAR-3 ovarian = tested on: OVCAR-3 ovarian
HT29 colon = tested on: HT29 colon
DU-145 prostate = tested on: DU-145 prostate
MDA-MB-435 = tested on: MDA-MB-435
OVCAR-4 ovarian = tested on: OVCAR-4 ovarian
SNB-75 CNS = tested on: SNB-75 CNS
UACC-257 melanoma = tested on: UACC-257 melanoma
HOP-62 NSCLC = tested on: HOP-62 NSCLC
NCI-H460 lung = tested on: NCI-H460 lung

Cn1c(=O)c2sc3cc4c(cc3c2c2ccccc21)sc1c(=O)n(C)c2ccccc2c14
TGI (HCT-116 colon): > 100 µM | TGI (OVCAR-5 ovarian): > 100 µM | TGI (OVCAR-3 ovarian): > 100 µM | TGI (HT29 colon): > 100 µM | TGI (DU-145 prostate): > 100 µM | TGI (MDA-MB-435): > 100 µM | TGI (OVCAR-4 ovarian): > 100 µM | TGI (SNB-75 CNS): 93.6 µM | TGI (UACC-257 melanoma): > 100 µM | TGI (HOP-62 NSCLC): 42.3 µM | TGI (NCI-H460 lung): > 100 µM

N#Cc1c(-c2ccc(Cl)cc2)cc(-c2nc3ccccc3[nH]2)nc1N
TGI (HCT-116 colon): 22.5 µM | TGI (OVCAR-5 ovarian): 43.4 µM | TGI (OVCAR-3 ovarian): 41.8 µM | TGI (HT29 colon): 25.5 µM | TGI (DU-145 prostate): 20.2 µM | TGI (MDA-MB-435): 18.8 µM | TGI (OVCAR-4 ovarian): 36.2 µM | TGI (SNB-75 CNS): 31.2 µM | TGI (UACC-257 melanoma): 18.5 µM | TGI (HOP-62 NSCLC): 38.5 µM | TGI (NCI-H460 lung): 21.6 µM

CCOC(=O)CCC(C(=O)OCC)n1nnc2cc(Nc3c(C)[n+]([O-])c4ccc(Cl)cc4[n+]3[O-])ccc21 (stereo not drawn)
TGI (HCT-116 colon): > 100 µM | TGI (OVCAR-5 ovarian): > 100 µM | TGI (OVCAR-3 ovarian): > 100 µM | TGI (HT29 colon): > 100 µM | TGI (DU-145 prostate): > 100 µM | TGI (MDA-MB-435): > 100 µM | TGI (OVCAR-4 ovarian): > 100 µM | TGI (SNB-75 CNS): > 100 µM | TGI (UACC-257 melanoma): > 100 µM | TGI (HOP-62 NSCLC): > 100 µM | TGI (NCI-H460 lung): > 100 µM

CCOC(=O)C1=C(C)N(c2ccc(C)cc2)C2(O)C=CC(=O)C3=C(O)c4ccccc4C(=O)C312 (stereo not drawn)
TGI (HCT-116 colon): > 100 µM | TGI (OVCAR-5 ovarian): > 100 µM | TGI (OVCAR-3 ovarian): > 100 µM | TGI (HT29 colon): 65.9 µM | TGI (DU-145 prostate): 55.7 µM | TGI (MDA-MB-435): > 100 µM | TGI (OVCAR-4 ovarian): 90.9 µM | TGI (SNB-75 CNS): 68.6 µM | TGI (UACC-257 melanoma): 57.9 µM | TGI (HOP-62 NSCLC): > 100 µM | TGI (NCI-H460 lung): > 100 µM

O=C(NCc1cccnc1)C(=O)NCc1cccnc1
TGI (HCT-116 colon): > 100 µM | TGI (OVCAR-5 ovarian): > 100 µM | TGI (OVCAR-3 ovarian): > 100 µM | TGI (HT29 colon): > 100 µM | TGI (DU-145 prostate): > 100 µM | TGI (MDA-MB-435): > 100 µM | TGI (OVCAR-4 ovarian): > 100 µM | TGI (SNB-75 CNS): > 100 µM | TGI (UACC-257 melanoma): > 100 µM | TGI (HOP-62 NSCLC): > 100 µM | TGI (NCI-H460 lung): > 100 µM

COc1ccc(C2=NNC(=O)c3ccccc3N2c2nc(-c3cccs3)nc3ccc(Br)cc23)cc1
TGI (HCT-116 colon): > 100 µM | TGI (OVCAR-5 ovarian): > 100 µM | TGI (OVCAR-3 ovarian): 52.5 µM | TGI (HT29 colon): > 100 µM | TGI (DU-145 prostate): > 100 µM | TGI (MDA-MB-435): > 100 µM | TGI (OVCAR-4 ovarian): > 100 µM | TGI (SNB-75 CNS): > 100 µM | TGI (UACC-257 melanoma): > 100 µM | TGI (HOP-62 NSCLC): 49.5 µM | TGI (NCI-H460 lung): > 100 µM

COC(=O)C1=C(C)NC2(C)OC(C)(O)C(C(C)=O)C12C(C)=O (stereo not drawn)
TGI (HCT-116 colon): > 100 µM | TGI (OVCAR-5 ovarian): > 100 µM | TGI (OVCAR-3 ovarian): > 100 µM | TGI (HT29 colon): > 100 µM | TGI (DU-145 prostate): > 100 µM | TGI (MDA-MB-435): > 100 µM | TGI (OVCAR-4 ovarian): > 100 µM | TGI (SNB-75 CNS): > 100 µM | TGI (UACC-257 melanoma): > 100 µM | TGI (HOP-62 NSCLC): > 100 µM | TGI (NCI-H460 lung): > 100 µM

O=C1C(=Cc2ccccc2[N+](=O)[O-])N=C(c2ccccc2)N1n1c(-c2ccccc2)nc2ccccc2c1=O
TGI (HCT-116 colon): 33.7 µM | TGI (OVCAR-5 ovarian): > 100 µM | TGI (OVCAR-3 ovarian): > 100 µM | TGI (HT29 colon): > 100 µM | TGI (DU-145 prostate): > 100 µM | TGI (MDA-MB-435): > 100 µM | TGI (OVCAR-4 ovarian): > 100 µM | TGI (SNB-75 CNS): > 100 µM | TGI (UACC-257 melanoma): 90.7 µM | TGI (HOP-62 NSCLC): > 100 µM | TGI (NCI-H460 lung): 99.1 µM

— PubChem BioAssay (NCI)
